Like-named read-outs stand apart in the source and are kept apart here.
Biological target: T1, pyIRS/tRNA pair (Methanosarcina mazei, UniProt Q8PWY1)
T1 construct: expressed in transfected cells
Type: cell-based
Conditions: for GFP expression / incorporation in the GFP reporter (in words): GFP assay, HEK293 cells expressing pyIRS/tRNApyl and GFPY40, nnAA at 2 mM; for Positive GFP / Positive GFP Assay: HEK293 cells stably expressing pyIRS (3H7), tRNApyl + GFPY40 reporter, nnAA at 2 mM for 2-3 days; for Positive GFP: visual inspection under the microscope; for Positive GFP Assay: Formula VI analogs
From the text: An in vitro cell based assay was developed to assess the compatibility of the pyIRS/tRNA pair and the pyrrolysine analogs of the present invention (nnAAs) by and the efficiency of nnAAs integration into a target protein. For this, HEK293 cells stably expressing pyIRS (3H7) were transiently transfected with plasmids for the expression of tRNApyl and a reporter construct encoding GFPY40 (containing amber codon in place of tyrosine at amino acid residue number 40 (where 1 is the initiator methionine)) using standard transfection protocols. Transfected cells were incubated with nnAAs at 2 mM for 2-3 days GFP production was analyzed qualitatively by visual inspection under the microscope. The GFP fluorescence was quantified by flow cytometry using an Accuri flow cytometer and the geometric mean of the fluorescent cells determined.
This cell based assay was used to determine whether the different nnAAs were suitable substrates for the pyIRS and allowed its translation into a target protein. Cells expressing the PyIRS/tRNApyl pair and containing a vector encoding the GFPY40 reporter gene were incubated in the presence of the nnAAs. nnAAs that are readily utilized by the PyIRS/tRNApyl pair support the translation of the nnAA into the amber site of GFP and allow read-through of the gene producing full length GFP (fluorescent protein). The fluorescence intensity of the cells depends on the efficiency of nnAA incorporation. Thus, nnAAs that are poorly utilized produce weakly fluorescent or non-fluorescing cells. […] Furthermore, the relative expression levels in each sample was compared to those generated by substrates known to be efficiently utilized by pyIRS.

T1 sequence (Q8PWY1 whole entry): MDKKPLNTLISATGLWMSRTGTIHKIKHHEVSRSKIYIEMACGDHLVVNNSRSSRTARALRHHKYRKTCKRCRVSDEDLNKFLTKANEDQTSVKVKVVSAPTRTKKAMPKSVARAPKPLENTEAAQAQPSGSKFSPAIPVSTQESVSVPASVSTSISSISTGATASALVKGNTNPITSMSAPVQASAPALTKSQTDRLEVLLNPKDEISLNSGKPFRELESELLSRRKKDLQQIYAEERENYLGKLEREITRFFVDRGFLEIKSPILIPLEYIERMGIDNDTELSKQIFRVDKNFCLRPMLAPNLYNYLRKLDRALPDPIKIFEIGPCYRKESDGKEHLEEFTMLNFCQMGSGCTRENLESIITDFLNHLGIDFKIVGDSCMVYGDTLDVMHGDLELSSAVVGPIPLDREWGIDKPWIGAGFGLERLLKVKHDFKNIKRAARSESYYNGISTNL

[N-]=[N+]=NCCOC(=O)NCCCC[C@H](N)C(=O)O [Formula V.1, (2S)-2-amino-6-{[(2-azidoethoxy)carbonyl]amino}hexanoic acid]
GFP expression / incorporation in the GFP reporter (in words): high levels of GFP expression | Positive GFP: Yes

C#CCOC(=O)NCCCC[C@H](N)C(=O)O [Formula V.2, (2S)-2-amino-6-{[(prop-2-yn-1-yloxy)carbonyl]amino}hexanoic acid]
GFP expression / incorporation in the GFP reporter (in words): high levels of GFP expression | Positive GFP: Yes

C=CCOC(=O)NCCCC[C@H](N)C(=O)O [Formula V.3, (2S)-2-amino-6-{[(prop-2-en-1-yloxy)carbonyl]amino}hexanoic acid]
GFP expression / incorporation in the GFP reporter (in words): high levels of GFP expression | Positive GFP: Yes

[N-]=[N+]=NCCNC(=O)OCCCC[C@H](N)C(=O)O [Formula VI.1, (2S)-2-amino-6-{[(2-azidoethyl)carbamoyl]oxy}hexanoic acid]
GFP expression / incorporation in the GFP reporter (in words): high levels of GFP expression | GFP expression / incorporation in the GFP reporter (in words) (listed as VI.1): yield green cells | Positive GFP Assay: Yes

C=CCNC(=O)OCCCC[C@H](N)C(=O)O [Formula VI.3, (2S)-2-amino-6-{[(prop-2-en-1-yl)carbamoyl]oxy}hexanoic acid]
GFP expression / incorporation in the GFP reporter (in words): yield green cells | Positive GFP Assay: Yes
